Test results from BindingDB's records for PubMed 3702863 (R. J. Reynolds Tobacco, 1986).

Target: Nicotinic acetylcholine receptor (Rattus leucopus, UniProt Q62594)
Sequence (Q62594 whole entry): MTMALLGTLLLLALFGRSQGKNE

SMILES	Ki [µM]
C[N+](C)(C)CCCCCC[N+](C)(C)C [Hexamethoniumdibromide]	> 10
CN1C(=O)CCC1c1cccnc1 (configuration not stated) [CAS_21906]	5
COc1cc(CC(C)N)cc(OC)c1OC (configuration not stated)	0.375
COc1cc2c3cc1Oc1cc(ccc1O)C[C@@H]1c4c(cc(OC)c(O)c4Oc4ccc(cc4)C[C@@H]3N(C)CC2)CC[N+]1(C)C [Tubocurarine,d]	> 10
C=C(C=O)C[C@H]1C[C@H](O)[C@]2(C)O[C@@H]3C[C@@H]4O[C@@H]5C[C@]6(C)O[C@]7(C)CC[C@@H]8O[C@@H]9C[C@]%10(C)O[C@@H]%11C(C)=CC(=O)O[C@H]%11C[C@H]%10O[C@H]9C[C@@H](C)[C@H]8O[C@H]7C[C@H]6O[C@@]5(C)C/C=C\[C@H]4O[C@H]3C[C@H]2O1	> 10
C[N+](C)(C)CCCCCCCCCC[N+](C)(C)C [Decamethonium Iodide]	3.13
CN1[C@@H](C[C@@H](O)c2ccccc2)CCC[C@H]1CC(=O)c1ccccc1 [Lobeline]	0.009
